The source of these data is article PMC7351765, “Gastrin releasing peptide receptor targeted nano-graphene oxide for near-infrared fluorescence imaging of oral squamous cell carcinoma” (Scientific Reports, 2020).

In one assay the target is T1, GRPR on HSC-3 cells (Homo sapiens, UniProt P30550).
T1 construct: endogenous in cells; host or cells: HSC-3 (human tongue squamous cell carcinoma)
Nature of the assay: Specificity binding (blocking) assay, NIR fluorescence microscopy. The assay is classed as cell-based. The following applies: 37 °C. The method, then:
The binding specificities of AF750-6Ahx-Sta-BBN were determined with HSC-3 cells of human oral tongue squamous cell carcinoma using previously described methods. […] To determine the binding affinity of AF750-6Ahx-Sta-BBN in HSC-3, cells were first incubated with BBN (1–14), then added increasing concentrations of AF750-6Ahx-Sta-BBN (0.005–50 nM). Cells were washed after 50 min incubation and examined by flow cytometry. The binding affinity to GRPR is shown in Fig. 7, and plotted as the fluorescence intensity as function of the AF750-6Ahx-Sta-BBN concentration (Fig. 7B).
Figure 6 The specificity binding assay of AF750-6Ahx-Sta-BBN to GRPR on HSC-3 cells at 37 °C. The scale bar is 30 μm.

The test system of assay [1] is HSC-3 cells. Nature of the assay: Time-dependent cell uptake, flow cytometry. The assay is classed as cell-based, human. Particulars: HSC-3, 2 × 10^6 cells, 37 °C, performed three times. The method, then:
(§1) The time-dependent experiment was carried out on HSC-3 cells for both AF750-6Ahx-Sta-BBN and NGO-BBN-AF750. […] With increase of incubation time, cells uptake increased, and at the first 15 min, we observed a rapid binding of up to 80%. […] The cell uptake was 83 ± 15% and 89 ± 29% (AF750-6Ahx-Sta-BBN) and 85 ± 15% and 96 ± 20% (NGO-BBN-AF750) at 30 min and 60 min, respectively. We further conducted confocal laser scanning microscope experiments to evaluate the internalization of AF750-6Ahx-Sta-BBN and NGO-BBN-AF750 into HSC-3 cells and HOK cells. Blue fluorescence (Excitation, 460 nm) was used to represent the nuclei of HSC-3 cells. Red (Excitation, 750 nm) channel represents the fluorescence signal of AF750. […] While AF750-6Ahx-Sta-BBN is a GRPR antagonist to the HSC-3, NGO-BBN-AF750 may be internalized into HSC-3 cells via the combined interaction of BBN binding and the endocytosis of the nanoparticle. Evaluating nanotoxicity of NGO-BBN-AF750 was a part of our experimental design.
HSC-3 cells were seeded into 3.5 cm^2 culture dish at a density of 2 × 10^6, next cells were incubated with AF750-6Ahx-Sta-BBN or NGO-AF750-BBN at 37 °C for 15, 30, 60 and 120 min, respectively. Then, cells were washed three times with chilled PBS and harvested for flow cytometry measurements. Experiments were performed three times. For internalization studies, HSC-3 cells were cultured in 24-well plates at 2 × 10^4 cells/well and grown for 24 h. Next, the original medium was replaced with fresh medium containing 50 nM AF750-6Ahx-Sta-BBN or NGO-BBN-AF750. The cells were then incubated for 4 h. After washing the cells three times with PBS, 2.5% paraformaldehyde was used to fix the cells. Then DAPI (Excitation, […]) was used to stain the nuclei of the cells. Finally, the cells were visualized under OLYMPUS FV1200 confocal laser scanning microscope (Olympus, Osaka, Japan). In addition, HOK cells were used as a GRPR-negative control group and cultured with NGO-BBN-AF750, the above experiment was performed and compared to the HSC-3 cells.

The subject of assay [2] is HSC-3 cells. Nature of the assay: Internalization study, confocal laser scanning microscopy. The assay is classed as cell-based, human. Particulars: HSC-3, 50 nM probe, 4 h, DAPI nuclear stain. As to the method: as §1
HSC-3 cells were seeded into 3.5 cm^2 culture dish at a density of 2 × 10^6, next cells were incubated with AF750-6Ahx-Sta-BBN or NGO-AF750-BBN at 37 °C for 15, 30, 60 and 120 min, respectively. Then, cells were washed three times with chilled PBS and harvested for flow cytometry measurements. Experiments were performed three times. […]

A further assay deals with T2, GRPR (Homo sapiens, UniProt P30550).
T2 construct: The paraffin-embedded samples, obtained from the Department of Pathology, Stomatology Hospital of Shanxi Medical University, were cut into 4-µm slices; from tissue; host or cells: paraffin-embedded OSCC tissue and normal oral mucosa sections from patients
T2 sequence (P30550 whole entry): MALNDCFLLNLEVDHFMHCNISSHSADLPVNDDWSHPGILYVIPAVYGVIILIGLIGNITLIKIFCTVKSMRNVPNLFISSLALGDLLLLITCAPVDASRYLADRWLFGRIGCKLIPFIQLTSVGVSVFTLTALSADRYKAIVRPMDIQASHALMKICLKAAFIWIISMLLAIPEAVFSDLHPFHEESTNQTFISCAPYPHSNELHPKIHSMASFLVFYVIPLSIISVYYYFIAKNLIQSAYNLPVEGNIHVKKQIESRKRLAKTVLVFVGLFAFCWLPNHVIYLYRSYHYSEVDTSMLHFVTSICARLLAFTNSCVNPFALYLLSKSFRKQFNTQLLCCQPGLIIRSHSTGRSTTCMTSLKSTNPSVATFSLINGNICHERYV
Nature of the assay: Immunofluorescence assay of paraffin tissue sections with the fluorescent probe. The following applies: 4-µm paraffin sections, probe 10 min in the dark, ImageJ quantitation. As to the method: We analyzed the expression levels of GRPR in primary OSCC sections and the normal tissue sections using AF750-6Ahx-Sta-BBN immunofluorescence assay.
The paraffin-embedded samples, obtained from the Department of Pathology, Stomatology Hospital of Shanxi Medical University, were cut into 4-µm slices. Then tissue blocks were treated with xylene and dehydrated using a graded ethanol series. Following that, the sections were heated for antigen retrieval and incubated in 3% H2O2 to block endogenous peroxidase. The BSA was added and incubated at 37 °C for 30 min. After that, BSA was removed and AF750-6Ahx-Sta-BBN was added and incubated for 10 min in the dark. The slides were observed and imaged using an inverted Olympus fluorescence microscope (Olympus Corp., Osaka, Japan). Quantitative analysis of GRPR expression was performed using ImageJ (https://imagej.nih.gov/ij/). Each patient received written informed consent before the study.

Assay [3] deals with GRPR overexpressed in a prostate cancer PC-3 cell line. The following applies: cited from earlier work. The text has this: AF750-6Ahx-Sta-BBN is a GRPR antagonist peptide analog.

T1 sequence (P30550 whole entry): as above

On to “-DPhe-Gln-Trp-Ala-Val-Gly-His-Sta-Leu-NH2 [AF750-6Ahx-Sta-BBN, GRPR-specific Alexa Fluor 750 labeled BBN antagonist peptide; Sta-BBN conjugated to AF750 via 6-aminohexanoic acid linker]”, for which the “NIR fluorescence of cells, blocking group” value on GRPR on HSC-3 cells (HSC-3 cells incubated with excessive BBN (1–14) for 10 min before the probe) was “no fluorescence signal”. Besides, the “NIR fluorescence of cells, uptake group” value on GRPR on HSC-3 cells (HSC-3 cells incubated with probe, no blocking) is “strong NIR fluorescence signals”. In addition, in the assay on HSC-3 cells [1] (15 min), the “binding in the first 15 min” value was “up to 80%”. In addition, the “cell uptake at 30 min” value with HSC-3 cells [1] (30 min) came out at 83 ± 15%. The “cell uptake at 60 min” value in the assay on HSC-3 cells [1] (60 min) stood at 89 ± 29%. Besides, the “cellular localisation / internalization” value with HSC-3 cells [2] is listed as “observed on the membrane of HSC-3”. At GRPR, the “fluorescence intensity increase, OSCC tissue versus normal oral mucous tissue” value came to 2.5 fold. Moreover, the “binding affinity and specificity to GRPR” value in assay [3] is “high binding affinity and specificity”.
